Measurements as given in patent US12448383B2, “Compounds and methods for treatment of viral infections” (priority 2022, dated 2025).
Read-outs that look alike come from different tables or passages of the source.

How the values were obtained:
GI S9 stability = format: in vitro ADME; details: human, s9, pH 7.4
Protocol: Example G: GI S9 Stability
Duplicate aliquots of test compound or positive control substrate (GS-7340) were added to S9 stock diluted with 100 mM phosphate buffered saline, pH 7.4, to obtain a protein concentration of 1.0 mg/mL. The S9 metabolic reactions were initiated by the addition of the substrates to the S9 reaction mixture to a final concentration of 2 μM. At 0, 10, 20, 30, 60 and 120 min, […] aliquots of the reaction mixture were transferred to plates containing […] of IS/Q solution. After quenching, the plates were centrifuged at 3000 g for 30 minutes, and 150 μL aliquots of each supernatant were diluted with 150 μL water. Aliquots ([…]) of the diluted supernatant were analyzed on a Thermo Q-Exactive mass spectrometer as described below. GI S9 Stability—No phenylmethylsulfonyl fluoride (PMSF): Similar to the procedure described above, test compounds were incubated at 2 μM with 1 mg/mL PMSF-free Intestinal S9 fractions. Samples are removed at 6 time points over the course of a 120 min experiment and the parent compound disappreance and reference compound A formation is determined by mass spectrometry.
Example K: Liquid Chromatography/Mass Spectroscopy Methods for S9 and Plasma Stability
Quantification of test compounds, Reference Compound A (S9 stability assay nucleoside metabolite), and controls was performed by analyte/internal standard peak area ratio (PAR) values measured on a Thermo Q-Exactive mass spectrometer coupled to a Dionex UltiMate 3000 HPLC with a Leap Technologies HTC PAL autosampler. The column used for analysis of test compounds and Reference Compound A was a Waters Acquity BEH C18 ([…] particle size, 2.1′50 mm). The column used for control (GS-7340) was a Thermo Hypersil GOLD ([…] particle size, 2.1′50 mm). Mobile phase A consisted of 0.1% (v/v) formic acid in water. Mobile phase B consisted of 0.1% (v/v) formic acid in acetonitrile. Elution of analytes was achieved by a series of linear gradients of acetonitrile in water containing 0.1°(v/v) formic acid. The mass spectrometer was calibrated on a weekly basis and mass tolerance of 5 ppm was used.

[1] = test system: Respiratory syncytial virus recombinant with luciferase (RSV-Luc5) in Normal Human Bronchial Epithelial (NHBE) cells; assay: microbe, parasite or virus in culture; format: cell-based
[2] = test system: Respiratory syncytial virus recombinant with luciferase (RSV-Luc5) in HEp-2 cells; assay: microbe, parasite or virus in culture; format: cell-based; details: human respiratory syncytial virus
[3] = CC50 MT4 cytotoxicity (Cell-Titer Glo); format: cell-based; details: human
In short: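 CC50 values are the concentrations cutting viability by 50%, fitted by non-linear regression against untreated (100%) and 2 μM puromycin (0%) controls. Cell-Titer Glo luminescence measured after 4-5 days at 37° C exposure of uninfected MT-4 and HEp-2 cells to 3-fold dilutions spanning 15 nM to 100,000 nM.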

[4] = Stability in pH2 buffered solution; format: physicochemical; details: pH2 phosphate buffer, 40° C., 24 h; Table N2
In short: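 UPLC % area-normalized compound peak tracked over 24 hrs at 40° C. (0, 3, 6, 9, 12 and 24 hrs). Samples at 50 μg/mL, prepared from 1 mg/mL acetonitrile stock, in pH2 or pH7 50 mM phosphate/150 mM NaCl buffer.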

[5] = Thermodynamic solubility in pH7 buffered solution; details: 50 mM phosphate buffer pH7, 150 mM NaCl, ambient temperature, 24 hours
Protocol: Solubility was determined at ambient temperature in a 50 mM phosphate buffered pH7 solution with 150 mM NaCl (to achieve isotonicity). Solids were added to the buffered solution in 1.5-mL Eppendorf tubes, vortexed for 1 minute, then agitated for 24 hours in an Eppendorf ThermoMixer C. […] Supernatants were diluted to a volume of 1 mL with 30:70 v/v acetonitrile:water. All diluted supernatants were analyzed by UPLC using a Waters Acquity UPLC with a PDA UV detector.

Plasma stability = format: in vitro ADME; set-up: unit not given here; details: 37° C., 2 μM substrate
In short: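 LC-MS (Q-Exactive, 5 ppm tolerance, 0.1% formic acid water/acetonitrile gradient) quantified compound in quenched aliquots. Aliquots were taken at 0.05, 0.5, 1, 2, 3 and 4 hr and quenched with internal-standard solution, and supernatants were diluted with water after centrifugation.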

[6] = test system: SARS Coronavirus 2 recombinant with NanoLuc (SARS-CoV2-NLuc) in A549-hACE2 cells; assay: organism not typed; format: cell-based
[7] = test system: Caco-2 cells (clone C2BBe1); assay: CACO-2 permeability; format: in vitro ADME; set-up: unit not given here; details: for DM Caco2 A to B: apical to basolateral, donor pH 6.5, receiver pH 7.4; for DM Caco2 B to A: basolateral to apical
In short: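 A-to-B and B-to-A flux measured by LC-MS/MS from receiver samples taken at 1 and 2 h, with donor sampled at 0 and 2 h and recovery checked. Buffers: pH 6.5 HBSS with 200 μM BNPP on the donor side, pH 7.4 with BSA on the receiver side. Monolayers were 21-day cultures, TEER-verified, in duplicate wells.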

[8] = Stability in pH7 buffered solution; format: physicochemical; details: pH7 phosphate buffer, 40° C., Table N2
Protocol: Example N: Stability in p112 and p117 Buffered Solutions
The aqueous stability of compounds over a time of 24 hours at 40° C. was assessed. Stability was determined in 50 mM phosphate buffered solutions at both pH2 and pH7, with 150 mM NaCl (to achieve isotonicity). 3-5 mg of solid compounds were added to 7 mL scintillation vials. Acetonitrile was added to each vial to produce a 1 mg/mL stock solution. Stock solutions were diluted to 50 μg/mL in either pH2 or pH7 phosphate buffer, to a volume of 1 mL. For each compound and pH condition, 50 μg/mL samples were prepped in duplicate. One sample was placed on the UPLC tray at 40° C. for analysis, and the second sample was placed in a 40° C. oven for storage. Sample preps for each compound were offset by 40 minutes to account for run time on UPLC.
Concentration timepoints were measured at 0, 3, 6, 9, and 12 hrs. After 24 hrs, samples in the 40° C. oven were removed and analyzed by UPLC.
In FIG. 2, % AN stands for % area normalized. That is, % AN is the area of the compound peak relative to the sum of areas of all the peaks in the UPLC chromatogram. For example, if there were two peaks, compound peak with an area of 9 and another peak with an area of 1, then the % AN of the compound peak would be 90%.

[9] = GI S9 stability - no PMSF; format: in vitro ADME; details: pH 7.4
In short: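 Stability was assessed by Q-Exactive LC-MS peak area ratios against internal standard, tracking loss of parent and appearance of nucleoside metabolite Reference Compound A. Incubations used 2 μM compound in 1 mg/mL intestinal S9 without PMSF (PBS, pH 7.4), with six samples taken over 120 min.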

[10] = HEp-2, 72 h, read-out: RSV Hep2 EC50
[11] = read-out: EC50 RSVFluc-NHBE 384 V2
[12] = uninfected MT-4 cells, Table D3, read-out: CC50 MT4 384
[13] = A549; read-out: EC50 SARS CoV2 NanoLuc A549 384

Row | Compound | half-life at 2 µM (GI S9 stability) | EC50 ([1]; 72 h, read-out: RSV NHBE EC50) | EC50 [2, 10] | CC50 [3] | pH 2 Stability 24 h % AN [4] | Sol pH 7 [5] | STA Human Plasma 37 (Plasma stability) | EC50 ([6]; 48 h; read-out: SARS-CoV2 EC50) | DM Caco2 A to B [7] | DM Caco2 B to A [7] | pH 7 Stability 24 h % AN [8] | EC50 [1, 11] | logD (DM logD) | EC50 ([2]; HEp-2, read-out: EC50 RSVFluc-Hep2 384 V2) | CC50 [3, 12] | EC50 [6, 13] | GIS9-HUMAN-NoPMSF T1/2 ([9]; human, s9, 2 µM) | half-life at 2 µM ([9]; human intestinal S9, PMSF-free, read-out: GIS9-HUMAN-NoPMSF T1/2) | EC50 ([6]; 48 h, read-out: SARS-CoV2 EC50)
1 | CCC(CC)COC(=O)OC[C@H]1O[C@@](C#N)(c2ccc3c(N)ncnn23)[C@H](O)[C@@H]1O [Compound 15, ((2R,3S,4R,5R)-5-(4-aminopyrrolo[2,1-f][1,2,4]triazin-7-yl)-5-cyano-3,4-dihydroxytetrahydrofuran-2-yl)methyl (2-ethylbutyl) carbonate] | 33.1 min | 0.9 µM | 0.53 µM | > 50 µM | 98 % AN | 0.26 | 40.503 | 1.24 µM | 1.46 | 12 | 97 % AN | – | – | – | – | – | – | – | –
2 | N#C[C@@]1(c2ccc3c(N)ncnn23)O[C@H](COC(=O)OCCl)[C@@H](O)[C@H]1O [Compound 101, ((2R,3S,4R,5R)-5-(4-aminopyrrolo[2,1-f][1,2,4]triazin-7-yl)-5-cyano-3,4-dihydroxytetrahydrofuran-2-yl)methyl (chloromethyl) carbonate] | – | – | – | – | – | – | – | – | – | – | – | 1.96 µM | 0.9 | 1.84 µM | > 50 µM | 3.21 µM | – | – | –
3 | CN1[C@@H]2CC[C@H]1C[C@@H](OC(=O)OC[C@H]1O[C@@](C#N)(c3ccc4c(N)ncnn34)[C@H](O)[C@@H]1O)C2 [Compound 156, ((2R,3S,4R,5R)-5-(4-aminopyrrolo[2,1-f][1,2,4]triazin-7-yl)-5-cyano-3,4-dihydroxytetrahydrofuran-2-yl)methyl ((1R,3r,5S)-8-methyl-8-azabicyclo[3.2.1]octan-3-yl) carbonate] | – | – | – | – | – | – | 248.79 | – | 0.12 | 0.13 | – | 49.8 µM | 0.3 | – | > 50 µM | 31.4 µM | 789 | – | –
4 | CCOP(=O)(O)O[C@H]1[C@@H](O)[C@](C#N)(c2ccc3c(N)ncnn23)O[C@@H]1COC(=O)OC(C)C [Compound 144, [(2R,3S,4R,5R)-5-(4-aminopyrrolo[2,1-f][1,2,4]triazin-7-yl)-5-cyano-3-[ethoxy(hydroxy)phosphoryl]oxy-4-hydroxy-tetrahydrofuran-2-yl]methyl isopropyl carbonate] | – | – | – | – | – | – | – | – | – | – | – | 3.06 µM | 0.4 | – | > 50 µM | > 50 µM | – | – | –
5 | N#C[C@@]1(c2ccc3c(N)ncnn23)O[C@H](COC(=O)OC2CCCCCCC2)[C@@H](O)[C@H]1O [Compound 14, ((2R,3S,4R,5R)-5-(4-aminopyrrolo[2,1-f][1,2,4]triazin-7-yl)-5-cyano-3,4-dihydroxytetrahydrofuran-2-yl)methyl cyclooctyl carbonate] | 56.3 min | 0.38 µM | 0.35 µM | > 50 µM | 97 % AN | – | 262.42 | – | 1.84 | 21.7 | 97 % AN | – | – | – | – | – | – | 1.07 min | 1.56 µM
6 | N#C[C@@]1(c2ccc3c(N)ncnn23)O[C@H](COC(=O)OCc2ccccc2)[C@@H](O)[C@H]1O [Compound 13, ((2R,3S,4R,5R)-5-(4-aminopyrrolo[2,1-f][1,2,4]triazin-7-yl)-5-cyano-3,4-dihydroxytetrahydrofuran-2-yl)methyl benzyl carbonate] | 35.3 min | 1.53 µM | 0.444 µM | 39.1 µM | 98 % AN | 0.12 | 3 | 1.25 µM | 0.59 | 8.8 | 97 % AN | – | – | – | – | – | – | – | –
7 | CC(C)OC(=O)Nc1ncnn2c([C@]3(C#N)O[C@H](COC(=O)OC(C)C)[C@@H](OC(=O)OC(C)C)[C@H]3O)ccc12 [Compound 62, isopropyl (7-((2R,3R,4S,5R)-2-cyano-3-hydroxy-4-((isopropoxycarbonyl)oxy)-5-(((isopropoxycarbonyl)oxy)methyl)tetrahydrofuran-2-yl)pyrrolo[2,1-f][1,2,4]triazin-4-yl)carbamate] | 31.1 min | ≥ 5 µM | > 50 µM | > 50 µM | 61 % AN | 0.1 | 488.7 | ≥ 5 µM | 4.19 | 12.12 | 10 % AN | – | – | – | – | – | – | – | –
